Assay: recombinant barcode read abundance after kanamycin selection (control-corrected) (log10(CPM+1)); higher = more efficient recombination; sequences stand for … in AGTGCAGAGAAAATCGGCCAGTTTTCTCTGCCTGCAGTCCGCATGCCGT…AGATTTATGCAGCGGACTGCCTTTCTCCCAAAGTGATAAACCGGACAGTATCATGGACCGGTTTTCCCGGTAATCCGTATTTGCAAGGTTGGTTTCACT; site = the 11-nt target
Summary of the method: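 Targets and IS621 bridge RNA target-binding loops were paired in oligos, each with a promoter, a barcode and the J23119-driven first 104 bridge RNA bases. A vector carrying the remaining 73 bp and a T7-inducible recombinase received these by Gibson cloning, and the pool was co-electroporated into E. coli with a donor plasmid. Duplicate plates contained chloramphenicol/ampicillin LB agar (control) or chloramphenicol/ampicillin/kanamycin with 0.1 mM IPTG. Recombination efficiency comes from averaged, control-corrected counts per million of recombinant-junction barcodes, reported as log10(CPM+1).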
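Note: IS621 recombinase and bridge RNA in Escherichia coli cells.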

Going from “GATCGATCTTGGGTTCTAACCTGTTGCCT (site GATCGATCTAC)” to “GATCGATCTTGGGTTCTAACCTGTTGCCT (site GATCGATCTAG)”, the “recombinant barcode read abundance (log10)” value rises from 0.159 to 0.663.

Going from “GATCGATCTTGGGTTCTAACCTGTTGCCT (site GATCGATCTAT)” to “GATCGATCTTGGGTTCTAACCTGTTGCTT (site GATCGATCTAA)”, the “recombinant barcode read abundance (log10)” value rises from 0.0541 to 0.349.

Compared with “GATCGATCTTGGGTTCTAACCTGTTGCTT (site GATCGATCTAC)”, “GATCGATCTTGGGTTCTAACCTGTTGCTT (site GATCGATCTAG)” is higher in “recombinant barcode read abundance (log10)” value: 0 for the first, 0.248 for the second.

First: GATCGATCTTGGGTTCTAACCTGTTGCTT (site GATCGATCTAT)
Second: GATCGGACTTGGGTTCTAACCTGTTGCGG (site GATCGGACTCC)
The “recombinant barcode read abundance (log10)” value of the first is lower: 0.0953 for the first, 1.69 for the second.

First: GATCGGACTTGGGTTCTAACCTGTTGCGG (site GTTCGGACTCC)
Second: GATGCACCTTGGGTTCTAACCTGTTGCGG (site GATGCACCTCC)
The “recombinant barcode read abundance (log10)” value of the first is lower: 0.596 for the first, 2.36 for the second.

“GATGCACCTTGGGTTCTAACCTGTTGCGG (site TGATTGACTAA)” and “GATGCTACTTGGGTTCTAACCTGTTGCAG (site GATACTACTCT)” are within 0.2 log units of each other in “recombinant barcode read abundance (log10)” value: 0.0617 for the first, 0.0793 for the second.

Going from “GATGCTACTTGGGTTCTAACCTGTTGCAG (site GATGCTACTCT)” to “GATGCTACTTGGGTTCTAACCTGTTGCGG (site GAAGCTACTAC)”, the “recombinant barcode read abundance (log10)” value falls from 1.04 to 0.128.

Going from “GATGCTACTTGGGTTCTAACCTGTTGCGG (site GATGCTACTCC)” to “GATGGAGCTTGGGTTCTAACCTGTTGCGG (site GATCGAGCTTC)”, the “recombinant barcode read abundance (log10)” value falls from 2.14 to 0.198.

Compared with “GATGGAGCTTGGGTTCTAACCTGTTGCGG (site GATGGAGCTCC)”, “GATGGGTCTTGGGTTCTAACCTGTTGCCT (site GATGGGTCTAG)” is lower in “recombinant barcode read abundance (log10)” value: 2.57 for the first, 1.37 for the second.

Compared with “GATGGGTCTTGGGTTCTAACCTGTTGCCT (site GCTGGGTCTAG)”, “GATGGTCCTTGGGTTCTAACCTGTTGCGG (site GACGGTCCTCC)” is higher in “recombinant barcode read abundance (log10)” value: 0.015 for the first, 0.306 for the second.

Going from “GATGGTCCTTGGGTTCTAACCTGTTGCGG (site GATGGTCCTCC)” to “GATTATACTTGGGTTCTAACCTGTTGCTT (site GATTATACTAA)”, the “recombinant barcode read abundance (log10)” value falls from 2.34 to 0.0285.

“GATTATACTTGGGTTCTAACCTGTTGCTT (site TGCGGAGCTCG)” and “GATTCTCCTTGGGTTCTAACCTGTTGCCT (site GATTCTCCTAA)” are within 0.2 log units of each other in “recombinant barcode read abundance (log10)” value: 0.046 for the first, 0.0949 for the second.

“GATTCTCCTTGGGTTCTAACCTGTTGCCT (site GATTCTCCTAC)” and “GATTCTCCTTGGGTTCTAACCTGTTGCCT (site GATTCTCCTAG)” are within 0.2 log units of each other in “recombinant barcode read abundance (log10)” value: 0.0529 for the first, 0.0773 for the second.

Going from “GATTCTCCTTGGGTTCTAACCTGTTGCCT (site GATTCTCCTAT)” to “GATTGTCCTTGGGTTCTAACCTGTTGCTT (site GATTGTCCTAA)”, the “recombinant barcode read abundance (log10)” value rises from 0 to 0.294.

“GATTGTCCTTGGGTTCTAACCTGTTGCTT (site GGTTGTCCTTA)” and “GCAATCCCTTGGGTTCTAACCTGTTGCTA (site AGAATCCCTTA)” are within 0.2 log units of each other in “recombinant barcode read abundance (log10)” value: 0.23 for the first, 0.0668 for the second.

Going from “GCAATCCCTTGGGTTCTAACCTGTTGCTA (site GCAATCCCTTA)” to “GCAATTGCTTGGGTTCTAACCTGTTGCCT (site AAGTCGTCTTA)”, the “recombinant barcode read abundance (log10)” value falls from 1.48 to 0.19.

Going from “GCAATTGCTTGGGTTCTAACCTGTTGCCT (site GCAATTGCTAG)” to “GCACAAGCTTGGGTTCTAACCTGTTGCCT (site GCACAAGCTAG)”, the “recombinant barcode read abundance (log10)” value rises from 0.458 to 0.978.

Going from “GCACAAGCTTGGGTTCTAACCTGTTGCCT (site GCTCTAGCTAG)” to “GCACATACTTGGGTTCTAACCTGTTGCCT (site GCACATACTAG)”, the “recombinant barcode read abundance (log10)” value rises from 0.091 to 1.2.

Compared with “GCACATACTTGGGTTCTAACCTGTTGCCT (site GCACATTCTAG)”, “GCACCAACTTGGGTTCTAACCTGTTGCCT (site CCACCGACTAG)” is higher in “recombinant barcode read abundance (log10)” value: 0 for the first, 0.242 for the second.

First: GCACCAACTTGGGTTCTAACCTGTTGCCT (site GCACCAACTAG)
Second: GCACGACCTTGGGTTCTAACCTGTTGCCT (site GCACAACCTAG)
The “recombinant barcode read abundance (log10)” value of the first is higher: 1.12 for the first, 0.808 for the second.

Going from “GCACGACCTTGGGTTCTAACCTGTTGCCT (site GCACCACCTAG)” to “GCACGACCTTGGGTTCTAACCTGTTGCCT (site GCACGACCTAG)”, the “recombinant barcode read abundance (log10)” value rises from 0.0505 to 1.56.

For “GCACGACCTTGGGTTCTAACCTGTTGCCT (site GCACTACCTAG)”, the “recombinant barcode read abundance (log10)” value was 0.

— the supplement of paper PMC11208160
